Legend:
[1] = test system: fibroblasts (BJ); assay: Safety, LDH test in fibroblasts; format: cell-based; settings: 48 hours, vs Triton X-100
Experimental: (§1) In order to test the safety of the compounds, both normal human cells were used: keratinocytes (HaCaT), fibroblasts (BJ), primary melanocytes that occur in the skin, as well as human cancer cells: the hepatocarcinoma line HepG2 and the neuroblastoma line SH-SY5Y, which are considered a model for the assessment of hepatocytotoxicity and neurocytotoxicity. The concentrations of the tested compounds in the range of […] were used in the studies. The cell lines used in the research were purchased from the American Type Culture Collection (ATCC) and were cultured in media recommended by the manufacturer with the addition of FBS and antibiotics in an incubator ensuring appropriate culture conditions, i.e. humidity, temperature and CO2 concentration. Cells were seeded into multiwell plates and incubated with the test compounds for 48 hours. After this time, MTT and LDH tests were performed to assess cell viability. The MTT test is based on the ability to transform the substrate: [3-(4,5-dimethyl-2-thiazolyl)-2,5-diphenyl-2H-tetrazolium bromide into a colored product only by living cells. The absorbance at 570 nm, which corresponds to the absorption maximum for the product, is directly proportional to cell viability. The LDH test is based on testing the activity of the enzyme lactate dehydrogenase in the culture medium, which is released from cells as a result of damage to the cell membrane, e.g. as a result of cell death. Triton X-100 was used as a positive control in the test. The determination is colorimetric, the substrate is transformed by the released enzyme into a colored product, an increase in absorbance indicates a larger amount of the released enzyme, and thus confirms greater damage to cell membranes. Tables 7 and 8 present the results obtained, which correspond to the viability of cells incubated with the compounds in relation to the viability of cells constituting a control sample, i.e. incubated with the solvent (DMSO) at the same concentration as in the case of the groups tested in the MTT test or in relation to the results obtained for the Triton X-100 positive control in the LDH test. They indicate that the compounds are safe at the concentrations tested.

[2] = test system: human reconstructed epidermis model EpiDerm; assay: Extended skin irritation test in reconstructed human epidermis EpiDerm; format: cell-based; settings: for Il-1α in culture medium: medium after first 24 hours
Experimental: Extended Skin Irritation Tests on Reconstructed Human Epidermis-Exposure Time Extended to 7 Days.
In order to perform extended skin irritation (safety) tests on the reconstructed human epidermis, the exposure time to the tested compounds was extended to 2 and 7 days in the human reconstructed epidermis model EpiDerm™ from MatTek. The epidermis was cultured according to the manufacturer's recommendations, using appropriate multi-well plates and culture media. Solutions of the tested compounds were applied to the epidermis using a positive displacement pipette and distributed using a sterile glass bulb headed Pasteur pipette. […] The epidermis was cultured in an incubator ensuring appropriate humidity, temperature (37° C.) and CO2 concentration (5%). The medium was replaced daily. After an appropriate incubation time, i.e. 2 days or 7 days, the epidermis was rinsed with sterile DPBS and incubated with MTT (Thiazolyl Blue Tetrazolium bromide) solution at 37° C. for 3 hours. After this time, a purple color of formazan was observed, correlated with tissue viability. […] Moreover, in the medium collected after the first 24 hours of EpiDerm epidermis culture, the level of interleukin 1α (Il-1α), which is a mediator of inflammation, was determined. Its level correlates with the unfavorable (irritating) effect of the tested substances on the epidermis. The level of IL-1α was determined using the Cayman Elisa test.

[3] = test system: reconstructed human epidermis containing melanocytes MelanoDerm MEL-300-B; assay: Melanogenesis inhibition in reconstructed human epidermis containing melanocytes (MelanoDerm); format: cell-based; settings: 14 days, MTT
Experimental: Melanogenesis Inhibition Studies in a Model of Reconstructed Human Epidermis Containing Melanocytes (MelanoDerm by Mattek).
The research was carried out on reconstructed human epidermis containing melanocytes MelanoDerm™ MEL-300-B from MatTek (Bratislava, Slovakia). The ratio of keratinocytes to melanocytes in the epidermis used is 10:1. Only medium purchased from the same manufacturer (EPI-100-NMM-113) was used to culture the epidermis during the experiments. Once the epidermis was obtained, it was transferred to 12-well plates containing 5 mL of medium/well. Plates were used to enable proper contact of the lower parts of the inserts with the substrate (so-called hanging-top plate). Solutions of the compounds were prepared immediately before their application. The solutions were applied to the inserts using a positive displacement pipette and then distributed using a sterile glass bulb headed Pasteur pipette. The application was repeated every 48 hours, a total of 7 applications were performed. Before the next application, each insert was rinsed with sterile DPBS and dried with a sterile cotton buds. The application was also accompanied by a change of the medium. […] The epidermis was cultured in an incubator ensuring appropriate humidity, temperature (37° C.) and CO2 concentration (5%).
The experiment was conducted for 14 days. After this time, the inserts were rinsed with DPBS and dried with a cotton swab. For the selected pool of inserts, tissue viability was assessed using the MTT (Thiazolyl Blue Tetrazolium bromide) test, the remaining ones were used to determine the amount of melanin. To assess viability, the inserts were transferred to 24-well plate containing 0.3 mL of DMEM medium with 1 mg/mL MTT and incubated for 3 hours in an incubator. The epidermis was then placed in 2 mL of isopropanol and the resulting formazan was extracted for 2 hours at room temperature. The absorbance of the samples was measured at 570 nm in a microplate reader and correlated with the absorbance of the control by the formula: % Viability=[OD (570 nm) for test compound/OD (570 nm) for control]×100. To determine the amount of melanin, the inserts were incubated in 5% sodium bicarbonate for 30 min, then dried and placed in 0.5 mL of Solvable™ reagent, which caused complete lysis of the epidermis. After heating at 95° C., the absorbance of the samples was measured at 405 nm in a microplate reader. On this basis, the reduction in the amount of melanin was calculated in relation to the control sample. The absorbance results were also correlated with a standard curve for synthetic melanin.

[4] = test system: S. typhimurium TA1535; assay: Ames microplate test, TA1535;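 note: bacteria exposed 90 min at 37 °C in exposure medium, then 48 h in indicator medium in 384-well plates, yellow (revertant) wells counted per condition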
[5] = test system: hepatocarcinoma HepG2; assay: Safety, LDH test in HepG2; format: cell-based; settings: 48 hours, vs Triton X-100
Experimental: as §1

[6] = test system: neuroblastoma SH-SY5Y; assay: Safety, MTT test in SH-SY5Y; format: cell-based; settings: 48 hours
Experimental: as §1

O=C(/C=C/c1ccc(Cl)cc1)NCCCCCO [Compound A-111, (2E)-3-(4-chlorophenyl)-N-(5-hydroxypentyl)prop-2-enamide]
LDH, Fibroblasts (BJ) ([1]; 100 μM): 5.25 percentage of positive control
LDH, Fibroblasts (BJ) ([1]; 150 μM): 5.37 percentage of positive control
LDH, Fibroblasts (BJ) ([1]; 200 μM): 8.43 percentage of positive control
LDH, Fibroblasts (BJ) ([1]; 250 μM): 14.90 percentage of positive control
Viability [% of control, mean ± SD] 2 days ([2]; 0.1% in 50% PEG (10 μL)): 88.42 ± 1.25 % of control
Viability [% of control, mean ± SD] 7 days ([2]; 0.1% in 50% PEG (10 μL)): 107.77 ± 3.12 % of control
Viability [% of control, mean ± SD] 2 days ([2]; 0.5% in 50% PEG (10 μL)): 92.02 ± 3.47 % of control
Viability [% of control, mean ± SD] 7 days ([2]; 0.5% in 50% PEG (10 μL)): 113.85 ± 4.03 % of control
Viability [% of control, mean ± SD] 2 days ([2]; 1.0% in 50% PEG (10 μL)): 98.56 ± 11.78 % of control
Viability [% of control, mean ± SD] 7 days ([2]; 1.0% in 50% PEG (10 μL)): 100.41 ± 1.52 % of control
Il-1α in culture medium ([2]; 1.0% in 50% PEG (10 μL)): 15.89 ± .057 pg/mL
Viability [% control, mean ± SD] ([3]; 1.0% in 50% PEG (10 μL)): 101.45 ± 6.45 % control
Viability [% control, mean ± SD] ([3]; 1.0% in 50% PEG (25 μL)): 85.67 ± 7.25 % control
Viability [% control, mean ± SD] ([3]; 2.0% in 50% PEG (25 μL)): 106.64 ± 7.78 % control
Increase in the number of yellow wells compared to the reference level, TA1535 ([4]; 0.5 mM, + S9): 0.58
Increase in the number of yellow wells compared to the reference level, TA1535 ([4]; 0.5 mM, without S9): 0.55
Increase in the number of yellow wells compared to the reference level, TA1535 ([4]; 1.0 mM, + S9): 0.35
Increase in the number of yellow wells compared to the reference level, TA1535 ([4]; 1.0 mM, without S9): 0.18
Increase in the number of yellow wells compared to the reference level, TA1535 ([4]; 2.0 mM, + S9): 0.23
Increase in the number of yellow wells compared to the reference level, TA1535 ([4]; 2.0 mM, without S9): 1.65
LDH, Hepatocarcinoma HepG2 ([5]; 100 μM): 4.90 percentage of positive control
LDH, Hepatocarcinoma HepG2 ([5]; 150 μM): 4.73 percentage of positive control
LDH, Hepatocarcinoma HepG2 ([5]; 200 μM): 5.48 percentage of positive control
LDH, Hepatocarcinoma HepG2 ([5]; 250 μM): 9.75 percentage of positive control
MTT, Neuroblastoma SH-SY5Y ([6]; 100 μM): 100.14 ± 3.22 % of solvent control
MTT, Neuroblastoma SH-SY5Y ([6]; 150 μM): 99.32 ± 3.36 % of solvent control
MTT, Neuroblastoma SH-SY5Y ([6]; 200 μM): 100.55 ± 2.31 % of solvent control
MTT, Neuroblastoma SH-SY5Y ([6]; 250 μM): 99.93 ± 4.36 % of solvent control

O=C(/C=C/c1ccc(Cl)cc1)NCCCO [H-330/21, (2E)-3-(4-chlorophenyl)-N-(3-hydroxypropyl)prop-2-enamide]
LDH, Fibroblasts (BJ) ([1]; 100 μM): 4.74 percentage of positive control
LDH, Fibroblasts (BJ) ([1]; 150 μM): 6.50 percentage of positive control
LDH, Fibroblasts (BJ) ([1]; 200 μM): 14.25 percentage of positive control
LDH, Fibroblasts (BJ) ([1]; 250 μM): 28.74 percentage of positive control
LDH, Hepatocarcinoma HepG2 ([5]; 100 μM): 5.38 percentage of positive control
LDH, Hepatocarcinoma HepG2 ([5]; 150 μM): 4.90 percentage of positive control
LDH, Hepatocarcinoma HepG2 ([5]; 200 μM): 12.16 percentage of positive control
LDH, Hepatocarcinoma HepG2 ([5]; 250 μM): 19.02 percentage of positive control
MTT, Neuroblastoma SH-SY5Y ([6]; 100 μM): 99.79 ± 5.34 % of solvent control
MTT, Neuroblastoma SH-SY5Y ([6]; 150 μM): 99.86 ± 3.76 % of solvent control
MTT, Neuroblastoma SH-SY5Y ([6]; 200 μM): 99.79 ± 3.97 % of solvent control
MTT, Neuroblastoma SH-SY5Y ([6]; 250 μM): 99.11 ± 3.66 % of solvent control

Cc1ccc(/C=C/C(=O)NCCCCCO)cc1 [H-415/21, (2E)-N-(5-hydroxypentyl)-3-(4-methylphenyl)prop-2-enamide]
LDH, Fibroblasts (BJ) ([1]; 100 μM): 8.81 percentage of positive control
LDH, Fibroblasts (BJ) ([1]; 150 μM): 8.75 percentage of positive control
LDH, Fibroblasts (BJ) ([1]; 200 μM): 9.82 percentage of positive control
LDH, Fibroblasts (BJ) ([1]; 250 μM): 16.63 percentage of positive control
Increase in the number of yellow wells compared to the reference level, TA1535 ([4]; 0.5 mM, without S9): 0.21
Increase in the number of yellow wells compared to the reference level, TA1535 ([4]; 1.0 mM, without S9): 0.41
Increase in the number of yellow wells compared to the reference level, TA1535 ([4]; 2.0 mM, without S9): 0.10
LDH, Hepatocarcinoma HepG2 ([5]; 100 μM): 3.90 percentage of positive control
LDH, Hepatocarcinoma HepG2 ([5]; 150 μM): 7.24 percentage of positive control
LDH, Hepatocarcinoma HepG2 ([5]; 200 μM): 8.92 percentage of positive control
LDH, Hepatocarcinoma HepG2 ([5]; 250 μM): 15.47 percentage of positive control
MTT, Neuroblastoma SH-SY5Y ([6]; 100 μM): 100.68 ± 4.63 % of solvent control
MTT, Neuroblastoma SH-SY5Y ([6]; 150 μM): 99.32 ± 2.96 % of solvent control
MTT, Neuroblastoma SH-SY5Y ([6]; 200 μM): 100.27 ± 3.50 % of solvent control
MTT, Neuroblastoma SH-SY5Y ([6]; 250 μM): 101.71 ± 2.38 % of solvent control

O=C(/C=C/c1ccccc1)NCCCCCCO [H-425/21, (E)-N-(6-hydroxyhexyl)cinnamic acid amide]
Viability [% of control, mean ± SD] 2 days ([2]; 1.0% in 50% PEG (10 μL)): 99.75 ± 15.49 % of control
Viability [% of control, mean ± SD] 7 days ([2]; 1.0% in 50% PEG (10 μL)): 104.01 ± 1.11 % of control
Il-1α in culture medium ([2]; 1.0% in 50% PEG (10 μL)): 60.29 ± 1.08 pg/mL
Viability [% control, mean ± SD] ([3]; 1.0% in 50% PEG (10 μL)): 87.16 ± 6.30 % control
Increase in the number of yellow wells compared to the reference level, TA1535 ([4]; 0.5 mM, + S9): 0.54
Increase in the number of yellow wells compared to the reference level, TA1535 ([4]; 0.5 mM, without S9): 1.04
Increase in the number of yellow wells compared to the reference level, TA1535 ([4]; 1.0 mM, + S9): 0.40
Increase in the number of yellow wells compared to the reference level, TA1535 ([4]; 1.0 mM, without S9): 0.59
Increase in the number of yellow wells compared to the reference level, TA1535 ([4]; 2.0 mM, + S9): 0.94
Increase in the number of yellow wells compared to the reference level, TA1535 ([4]; 2.0 mM, without S9): 0.45

O=C(/C=C/c1ccc(Cl)cc1)NCCO [H-427/21, (2E)-3-(4-chlorophenyl)-N-(2-hydroxyethyl)prop-2-enamide]
LDH, Fibroblasts (BJ) ([1]; 100 μM): 2.75 percentage of positive control
LDH, Fibroblasts (BJ) ([1]; 150 μM): 5.92 percentage of positive control
LDH, Fibroblasts (BJ) ([1]; 200 μM): 9.00 percentage of positive control
LDH, Fibroblasts (BJ) ([1]; 250 μM): 17.32 percentage of positive control
LDH, Hepatocarcinoma HepG2 ([5]; 100 μM): 3.09 percentage of positive control
LDH, Hepatocarcinoma HepG2 ([5]; 150 μM): 4.45 percentage of positive control
LDH, Hepatocarcinoma HepG2 ([5]; 200 μM): 5.98 percentage of positive control
LDH, Hepatocarcinoma HepG2 ([5]; 250 μM): 13.51 percentage of positive control
MTT, Neuroblastoma SH-SY5Y ([6]; 100 μM): 100.48 ± 3.67 % of solvent control
MTT, Neuroblastoma SH-SY5Y ([6]; 150 μM): 100.96 ± 2.72 % of solvent control
MTT, Neuroblastoma SH-SY5Y ([6]; 200 μM): 101.30 ± 2.94 % of solvent control
MTT, Neuroblastoma SH-SY5Y ([6]; 250 μM): 102.60 ± 9.66 % of solvent control
